Our source for the TGI and GI50 values is PubChem BioAssay (NCI).

Among the test systems are 786-0 renal; EKVX NSCLC; HOP-92 NSCLC; KM12 colon; MCF7 breast; NCI-H522 lung; OVCAR-4 ovarian; OVCAR-8 ovarian; TK-10 renal; UACC-257 melanoma.
Holding throughout (experiment): inhibition of tumour cell growth, NCI panel, 48 h

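Step 1: Grow cells in 96-well plates. Step 2: Expose to compound for 48 hours at 5 concentrations. Step 3: Interpolate endpoints linearly; if unreached, use highest concentration. Abbreviation: GI50, concentration required for 50% inhibition of growth. TGI marks complete inhibition of growth.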 Where a SMILES comes first, the peptide text is derived from it. [ ]: non-standard residue; d: D form. The star is where a group is joined. X28 = COC1=CC(=O)N(C(=O)[C@@H](O*)C(C)C)[C@H]1Cc1ccccc1; NMeV = CN[C@H](C(=O)O)C(C)C; Hexanoyl = CCCCCC(=O)*

Turning to `CN1CC[C@@]2(c3cccc(O)c3)CC(=O)/C(=C/c3ccccc3)[C@H]1C2`, the TGI was 25 µM in the test with 786-0 renal; 28.7 µM with EKVX NSCLC; 31 µM in the test on HOP-92 NSCLC; > 30.4 µM in the test on KM12 colon; 10.3 µM in the test with MCF7 breast; 20 µM in the test with NCI-H522 lung. In addition, the TGI with OVCAR-4 ovarian was 22.2 µM; in the test with OVCAR-8 ovarian, > 48 µM; in the test with TK-10 renal it was 29.2 µM; with UACC-257 melanoma, 30.8 µM.
`CCC1C(C#N)=C(N)OC2=C1C(=O)CC(C)(C)C2` (stereo not given): the TGI in the test with 786-0 renal, with EKVX NSCLC, in the test with HOP-92 NSCLC, in the test with KM12 colon, in the test with MCF7 breast and in the test on NCI-H522 lung was > 100 µM in each case. Moreover, the TGI with OVCAR-4 ovarian, in the test on OVCAR-8 ovarian, in the test on TK-10 renal and with UACC-257 melanoma was > 100 µM in each case.
On to `O=S(=O)(O)c1ccc2cccc(N=Nc3c(O)ccc4ccccc34)c2c1`, for which the TGI with 786-0 renal, with EKVX NSCLC, with HOP-92 NSCLC, in the test on KM12 colon, with MCF7 breast and with NCI-H522 lung was > 100 µM in each case. The TGI in the test with OVCAR-4 ovarian, with OVCAR-8 ovarian, in the test on TK-10 renal and in the test on UACC-257 melanoma was > 100 µM in each case.
For `CCCCCC(=O)N[C@H](C(=O)N[C@H](C(=O)N(C)[C@H](C(=O)N1CCC[C@H]1C(=O)N1CCC[C@H]1C(=O)O[C@H](C(=O)N1C(=O)C=C(OC)[C@@H]1Cc1ccccc1)C(C)C)C(C)C)C(C)C)C(C)C` (Hexanoyl-VV[NMeV]PP-X28), the TGI in the test with 786-0 renal, with EKVX NSCLC, with HOP-92 NSCLC, in the test with KM12 colon, in the test with MCF7 breast and in the test with NCI-H522 lung was > 100 µM each time. Also, the TGI in the test on OVCAR-4 ovarian, in the test with OVCAR-8 ovarian, in the test with TK-10 renal and in the test on UACC-257 melanoma was > 100 µM each time.
With `CC#CC#C/C=C1/O[C@]2(CCC(OC(C)=O)CO2)[C@@H]2O[C@H]12` (stereo not given in full), the TGI with 786-0 renal is 46.9 µM; in the test on EKVX NSCLC it was 77.5 µM; in the test with HOP-92 NSCLC, 92.9 µM; in the test with KM12 colon, 47.1 µM; in the test on MCF7 breast, > 100 µM; with NCI-H522 lung, 35.6 µM. Moreover, the TGI is > 100 µM with OVCAR-4 ovarian, > 100 µM with OVCAR-8 ovarian, > 100 µM in the test on TK-10 renal and 74.9 µM in the test on UACC-257 melanoma.
With `N=c1oc2c(Cl)cc(Cl)cc2cc1C(=O)Nc1cccc2ccccc12`, the TGI with 786-0 renal was 12.8 µM; in the test with EKVX NSCLC it was > 74.3 µM; in the test with HOP-92 NSCLC, 97.7 µM; with KM12 colon, > 100 µM; with MCF7 breast, > 100 µM; with NCI-H522 lung it was > 100 µM. Besides, the TGI in the test on OVCAR-4 ovarian was 6.37 µM; in the test on OVCAR-8 ovarian, 14.2 µM; in the test with TK-10 renal it was 4.71 µM; in the test with UACC-257 melanoma, > 100 µM.
Consider `CC[C@H]1C=CCC[C@@]2(C[C@@H]3CC[C@@H]4[C@H](C(=O)OCCCCCCCCCCCCCCCC(=O)O)[C@]5(CCC[C@@H](C)O5)NC(=[N+]34)N2)O1`, for which the TGI in the test with 786-0 renal is 0.418 µM; with EKVX NSCLC, 10.5 µM; in the test on HOP-92 NSCLC, 0.615 µM; with KM12 colon, 5.76 µM; in the test on MCF7 breast it was 4.95 µM; in the test with NCI-H522 lung, 0.365 µM. Further, the values for the TGI in the test with OVCAR-4 ovarian, in the test with OVCAR-8 ovarian and in the test with TK-10 renal were 6.47 µM, 8.03 µM and 8.73 µM, respectively.
As to `COc1ccc2nc(-c3ccc(-c4noc(-c5cc(OC)c(OC)c(OC)c5)n4)cc3)[nH]c2c1`, the GI50 in the test on EKVX NSCLC is 26.2 µM; in the test with HOP-92 NSCLC, 14.3 µM; in the test with KM12 colon, 7.52 µM; in the test with MCF7 breast, 1.08 µM; with NCI-H522 lung, 6.89 µM; in the test on OVCAR-4 ovarian it was 1.88 µM. The GI50 in the test with OVCAR-8 ovarian was 4.93 µM; in the test with TK-10 renal it was 4.62 µM; with UACC-257 melanoma, 17.1 µM. Also, the TGI in the test with EKVX NSCLC was 84.9 µM; with HOP-92 NSCLC, 33.5 µM; in the test with KM12 colon it was 81.8 µM; in the test with MCF7 breast, 22.1 µM; with NCI-H522 lung, 45.3 µM; with OVCAR-4 ovarian, 4.79 µM. Also, the TGI turned out to be 26.4 µM in the test on OVCAR-8 ovarian, 13 µM in the test on TK-10 renal and 46.9 µM in the test with UACC-257 melanoma.
Regarding `CC1SC(c2ccccc2)N(CCc2cccs2)C1=O` (stereo not given), the GI50 is 2.77 µM in the test on EKVX NSCLC; 1.27 µM in the test on HOP-92 NSCLC; 3.44 µM in the test on KM12 colon; 3.36 µM in the test on MCF7 breast; 1.89 µM in the test on NCI-H522 lung; 2.45 µM in the test with OVCAR-4 ovarian. Further, the GI50 with OVCAR-8 ovarian was 4.72 µM; with TK-10 renal, 4.05 µM; in the test with UACC-257 melanoma, 4.73 µM. Further, the TGI with EKVX NSCLC turned out to be 12.7 µM; in the test on HOP-92 NSCLC it was 5.59 µM; with KM12 colon it was 13.3 µM; in the test on MCF7 breast it was 15.2 µM; with NCI-H522 lung, 8.76 µM; in the test with OVCAR-4 ovarian, 13 µM. Further, the TGI with OVCAR-8 ovarian amounted to 31.2 µM; in the test with TK-10 renal, 26 µM; with UACC-257 melanoma, 14.5 µM.
